Test results reported in ChEMBL document CHEMBL1141176, “Quantitative structure-activity relationship (5D-QSAR) study of combretastatin-like analogues as inhibitors of tubulin assembly” (J Med Chem, 2005).

What follows are molecules tested against Tubulin beta-1 chain (Homo sapiens, UniProt Q9H4B7) (assay: Concentration required for 50% inhibition of tubulin polymerization).
Sequence of Tubulin beta-1 chain (Q9H4B7 whole entry): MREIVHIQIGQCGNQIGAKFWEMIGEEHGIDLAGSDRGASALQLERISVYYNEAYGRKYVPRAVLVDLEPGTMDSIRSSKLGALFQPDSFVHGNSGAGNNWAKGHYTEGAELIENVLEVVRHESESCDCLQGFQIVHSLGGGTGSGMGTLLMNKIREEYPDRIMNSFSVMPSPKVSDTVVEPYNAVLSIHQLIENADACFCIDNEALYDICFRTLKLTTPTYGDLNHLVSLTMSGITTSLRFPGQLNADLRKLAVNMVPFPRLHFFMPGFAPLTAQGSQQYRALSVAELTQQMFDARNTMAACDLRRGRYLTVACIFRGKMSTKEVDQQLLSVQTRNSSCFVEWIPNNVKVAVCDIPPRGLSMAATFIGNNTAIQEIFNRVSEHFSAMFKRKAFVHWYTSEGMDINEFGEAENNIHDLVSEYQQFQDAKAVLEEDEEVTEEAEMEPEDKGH

Row | SMILES | IC50
1 | COc1cc(C(=O)/C=C/c2ccc(O)c(O)c2)cc(OC)c1OC | > 100000 nM
2 | COc1ccc(OCc2cc(OC)c(OC)c(OC)c2)cc1O | 21000 nM
3 | COc1ccc(Nc2cc(OC)c(OC)c(OC)c2)cc1O | > 100000 nM
4 | COc1ccc(COc2cc(OC)c(OC)c(OC)c2)cc1OCC=O | 41000 nM
5 | COc1ccc(OCc2cc(OC)c(OC)c(OC)c2)cc1CO | > 100000 nM
6 | COc1ccc(/C=C\c2ccc(C)c(C)c2)cc1O | 3100 nM
7 | COc1ccc(/C=C\c2cc(F)c(F)c(F)c2)cc1O | 4500 nM
8 | COc1cc(C(=O)/C=C/c2cc(F)c(OC)c(F)c2)cc(OC)c1OC | 12000 nM
9 | COc1ccc(/C=C(/C)c2cc(OC)c(OC)c(OC)c2)cc1 | 1300 nM
10 | COc1ccc(/C=C(\C)C(O)c2cc(OC)c(OC)c(OC)c2)cc1O (stereo not given) | > 10000 nM
11 | COc1ccc(/C=C\c2cc(C)c(C)c(C)c2)cc1F | 700 nM
12 | COc1ccc(C(=O)/C=C/c2cc(F)c(OC)c(F)c2)c(OC)c1OC | 31000 nM
13 | COc1ccc(C(=O)/C=C/c2cc(O)c(O)c(O)c2)c(OC)c1OC | > 100000 nM
14 | CCOc1cc(/C=C\c2ccc(OC)c(F)c2)cc(OCC)c1OCC | 1200 nM
15 | COc1ccc(/C=C(/C)c2cc(OC)c(OC)c(OC)c2)cc1O | 130 nM
16 | COc1ccc(/C(C)=C/c2cc(OC)c(OC)c(OC)c2)cc1O | 9000 nM
17 | COc1ccc(/C=C\c2cc(O)c(OC)c(OC)c2)cc1F | 1250 nM
18 | COc1ccc(/C=C\c2ccc(C)c(C)c2)cc1F | 6600 nM
19 | CC/C(=C/c1ccc(OC)c(O)c1)c1cc(OC)c(OC)c(OC)c1 | 130 nM
20 | COc1ccc(/C=C\c2cc(F)c(F)c(F)c2)cc1F | 5500 nM
21 | COc1ccc(/C=C/C(=O)c2ccc(OC)c(OC)c2OC)cc1F | 7900 nM
22 | COc1ccc(COc2cc(OC)c(OC)c(OC)c2)cc1O | 7200 nM
23 | COc1ccc(Oc2cc(OC)c(OC)c(OC)c2)cc1O | 11000 nM
24 | COc1ccc(COc2cc(OC)c(OC)c(OC)c2)cc1OCC(O)CO (stereo not given) | > 100000 nM
25 | CO/C(=C\c1ccc(OC)c(O)c1)C(=O)c1cc(OC)c(OC)c(OC)c1 | 510 nM
26 | COc1cc(/C=C\c2ccc(C)c(C)c2)cc(OC)c1OC | 2000 nM
27 | COc1ccc(/C=C(\C)C(=O)c2cc(OC)c(OC)c(OC)c2)cc1[N+](=O)[O-] | > 10000 nM
28 | COc1ccc(/C=C/C(=O)c2cc(OC)c(OC)c(OC)c2)cc1N | 2000 nM
29 | COc1ccc(/C=C\c2cc(OC)c(OC)c(OC)c2)cc1 | 200 nM
30 | COc1ccc(OC)c(C(=O)/C(C)=C/c2ccc(N(C)C)cc2)c1 | 10000 nM

Next, values leading:

Row | IC50 | SMILES
31 | 560 nM | COc1ccc(OCc2cc(OC)c(OC)c(OC)c2)cc1C=O
32 | 650 nM | COc1ccc(/C=C\c2cc(C)c(C)c(C)c2)cc1
33 | 500 nM | CCOc1cc(/C=C\c2ccc(OC)c(O)c2)cc(OCC)c1OCC
34 | 1200 nM | COc1ccc(/C=C/C(=O)c2cc(OC)c(OC)c(OC)c2)cc1F
35 | 4000 nM | COc1ccc(CC(C)C(=O)c2cc(OC)c(OC)c(OC)c2)cc1O (stereo not given)
36 | 1700 nM | CO/C(=C\c1cc(F)c(OC)c(F)c1)C(=O)c1cc(OC)c(OC)c(OC)c1
37 | 2400 nM | COc1cc(C(=O)/C(C)=C/c2cc(F)c(OC)c(F)c2)cc(OC)c1OC
38 | 450 nM | COc1ccc(/C=C/C(=O)c2ccc(OC)c(OC)c2OC)cc1O
39 | 2500 nM | COc1ccc(/C=C\c2ccccc2)cc1O
40 | 120 nM | COc1ccc(/C=C\c2cc(C)c(C)c(C)c2)cc1O
41 | 470 nM | CO/C(=C\c1ccc(OC)c(F)c1)C(=O)c1cc(OC)c(OC)c(OC)c1
42 | 650 nM | COc1ccc(/C=C(\C)C(=O)c2cc(OC)c(OC)c(OC)c2)cc1F
43 | 3400 nM | CCc1ccc(/C=C\c2cc(OC)c(OC)c(OC)c2)cc1
44 | 460 nM | COc1ccc(/C=C(\C)C(=O)c2cc(OC)c(OC)c(OC)c2)cc1O
45 | 620 nM | COc1ccc(/C=C/C(=O)c2cc(OC)c(OC)c(OC)c2)cc1O
